Results published in patent US9518018B2, “3-alkoxy, thioalkyl and amino-4-amino-6-(substituted)picolinates and their use as herbicides” (Dow AgroSciences LLC, priority 2011, dated 2016).

Columns and labels:
Test in all cases: Post-Emergent Test I herbicidal activity
Type in all cases: in vivo
[1] = test system: CYPES: yellow nutsedge (Cyperus esculentus); conditions: post-emergence, 336 h, read-out: Visual Growth Reduction (%)-14 Days after Application CYPES; for pest or weed control at 140 g/ha: Table 3, 140 g ai/ha; for pest or weed control at 70 g/ha: Table 3, 70 g ai/ha
Description: (§1) Seeds or nutlets of the desired test plant species were planted in Sun Gro Metro-Mix® 360 planting mixture, which typically has a pH of 6.0 to 6.8 and an organic matter content of about 30 percent, in plastic pots with a surface area of 64 square centimeters. When required to ensure good germination and healthy plants, a fungicide treatment and/or other chemical or physical treatment was applied. The plants were grown for 7-21 d in a greenhouse with an approximate 15 h photoperiod which was maintained at about 23-29° C. during the day and 22-28° C. during the night. Nutrients and water were added on a regular basis and supplemental lighting was provided with overhead metal halide 1000-Watt lamps as necessary. The plants were employed for testing when they reached the first or second true leaf stage.
(§2) A weighed amount, determined by the highest rate to be tested, of each test compound was placed in a 25 mL glass vial and was dissolved in 4 mL of a 97:3 v/v mixture of acetone and DMSO to obtain concentrated stock solutions. […] The concentrated stock solutions obtained were diluted with 20 mL of an aqueous mixture containing acetone, water, isopropyl alcohol, DMSO, Atplus 411F crop oil concentrate, and Triton® X-155 surfactant in a 48.5:39:10:1.5:1.0:0.02 v/v ratio to obtain spray solutions containing the highest application rates. Additional application rates were obtained by serial dilution of 12 mL of the high rate solution into a solution containing 2 mL of 97:3 v/v mixture of acetone and DMSO and 10 mL of an aqueous mixture containing acetone, water, isopropyl alcohol, DMSO, Atplus 411F crop oil concentrate, and Triton X-155 surfactant in a 48.5:39:10:1.5:1.0:0.02 v/v ratio to obtain ½×, ¼×, ⅛× and 1/16× rates of the high rate. Compound requirements are based upon a 12 mL application volume at a rate of 187 liters per hectare (L/ha). Formulated compounds were applied to the plant material with an overhead Mandel track sprayer equipped with 8002E nozzles calibrated to deliver 187 L/ha over an application area of 0.503 square meters at a spray height of 18 inches (43 cm) above the average plant canopy height. Control plants were sprayed in the same manner with the solvent blank.
(§3) The treated plants and control plants were placed in a greenhouse as described above and watered by subirrigation to prevent wash-off of the test compounds. After 14 d, the condition of the test plants as compared with that of the untreated plants was determined visually and scored on a scale of 0 to 100 percent where 0 corresponds to no injury and 100 corresponds to complete kill.
(§4) By applying the well-accepted probit analysis as described by J. Berkson in Journal of the […], 48, 565 (1953) and by D. Finney in “Probit Analysis” Cambridge University Press (1952), the above data can be used to calculate GR20, GR50 and GR80 values, which are defined as growth reduction factors that correspond to the effective dose of herbicide required to kill or control 20 percent, 50 percent or 80 percent, respectively, of a target plant.

[2] = test system: ECHCG: barnyardgrass (Echinochloa crus-galli); conditions: post-emergence, 336 h, read-out: Visual Growth Reduction (%)-14 Days after Application ECHCG; for pest or weed control at 140 g/ha: Table 3, 140 g ai/ha; for pest or weed control at 70 g/ha: Table 3, 70 g ai/ha
Description: as §1, §2, §3, §4

[3] = test system: EPHHL: wild poinsettia (Euphorbia heterophylla); conditions: post-emergence, 336 h, read-out: Visual Growth Reduction (%)-14 Days after Application EPHHL; for pest or weed control at 140 g/ha: Table 3, 140 g ai/ha; for pest or weed control at 70 g/ha: Table 3, 70 g ai/ha
Description: as §1, §2, §3, §4

[4] = test system: ZEAMX: corn (Zea mays); conditions: Zea mays, post-emergence, 336 h, read-out: Visual Growth Reduction (%)-14 Days after Application ZEAMX; for pest or weed control at 140 g/ha: Table 3, 140 g ai/ha; for pest or weed control at 70 g/ha: Table 3, 70 g ai/ha
Description: as §1, §2, §3, §4

[5] = test system: ABUTH: velvetleaf (Abutilon theophrasti); conditions: Abutilon theophrasti, post-emergence, 336 h, read-out: Visual Growth Reduction (%)-14 Days after Application ABUTH; for pest or weed control at 140 g/ha: Table 3, 140 g ai/ha; for pest or weed control at 70 g/ha: Table 3, 70 g ai/ha
Description: as §1, §2, §3, §4

[6] = test system: ORYSA: rice (Oryza sativa); conditions: post-emergence, 336 h, read-out: Visual Growth Reduction (%)-14 Days after Application ORYSA; for pest or weed control at 140 g/ha: Table 3, 140 g ai/ha; for pest or weed control at 70 g/ha: Table 3, 70 g ai/ha
Description: as §1, §2, §3, §4

[7] = test system: CHEAL: lambsquarters (Chenopodium album); conditions: Chenopodium album, post-emergence, 336 h, read-out: Visual Growth Reduction (%)-14 Days after Application CHEAL; for pest or weed control at 140 g/ha: Table 3, 140 g ai/ha; for pest or weed control at 70 g/ha: Table 3, 70 g ai/ha
Description: as §1, §2, §3, §4

| Structure (SMILES) | pest or weed control at 140 g/ha [1] [%] | pest or weed control at 140 g/ha [2] [%] | pest or weed control at 140 g/ha [3] [%] | pest or weed control at 140 g/ha [4] [%] | pest or weed control at 140 g/ha [5] [%] | pest or weed control at 140 g/ha [6] [%] | pest or weed control at 140 g/ha [7] [%] | further results |
| --- | --- | --- | --- | --- | --- | --- | --- | --- |
| COC(=O)c1nc(C(C)(F)F)cc(N)c1OC [Compound 81, methyl 4-amino-6-(1,1-difluoroethyl)-3-methoxypicolinate] | 0 | 0 | 60 | 0 | 10 | 0 | 80 |  |
| COC(=O)c1nc(-c2ccc(Cl)cc2F)cc(NC(C)=O)c1OC [Compound 4, Methyl 4-acetamido-6-(4-chloro-2-fluorophenyl)-3-methoxypicolinate] | 0 | 0 | 100 | 0 | 80 | 0 | 100 |  |
| COC(=O)c1nc(-c2ccc(OC)nc2)c(F)c(N)c1OC [Compound 75, methyl 4-amino-3-fluoro-5,6′-dimethoxy-[2,3′-bipyridine]-6-carboxylate] | 95 | 0 | 85 | 85 | 90 | 0 | 85 |  |
| CCOC(=O)c1nc(-c2ccc(Cl)cc2F)cc(N)c1OCC(F)F [Compound 68] |  |  |  |  |  |  |  | pest or weed control at 180 g/ha ([1]; Table 3, 180 g ai/ha): 90%; pest or weed control at 180 g/ha ([2]; Table 3, 180 g ai/ha): 0%; pest or weed control at 180 g/ha ([3]; Table 3, 180 g ai/ha): 100%; pest or weed control at 180 g/ha ([4]; Table 3, 180 g ai/ha): 10%; pest or weed control at 180 g/ha ([5]; Table 3, 180 g ai/ha): 100%; pest or weed control at 180 g/ha ([6]; Table 3, 180 g ai/ha): 0%; pest or weed control at 180 g/ha ([7]; Table 3, 180 g ai/ha): 90% |
| COc1c(C(=O)O)nc(Cl)c(F)c1N [Compound 51] |  |  |  |  |  |  |  | pest or weed control at 70 g/ha [1]: 0%; pest or weed control at 70 g/ha [2]: 0%; pest or weed control at 70 g/ha [3]: 100%; pest or weed control at 70 g/ha [4]: 0%; pest or weed control at 70 g/ha [5]: 0%; pest or weed control at 70 g/ha [6]: 0%; pest or weed control at 70 g/ha [7]: 90% |
| C=Cc1nc(C(=O)OC)c(OC)c(N)c1F [Compound 12, methyl 4-amino-5-fluoro-3-methoxy-6-vinylpicolinate] |  |  |  |  |  |  |  | pest or weed control at 280 g/ha ([1]; Table 3, 280 g ai/ha): 0%; pest or weed control at 280 g/ha ([2]; Table 3, 280 g ai/ha): 0%; pest or weed control at 280 g/ha ([3]; Table 3, 280 g ai/ha): 0%; pest or weed control at 280 g/ha ([4]; Table 3, 280 g ai/ha): 0%; pest or weed control at 280 g/ha ([5]; Table 3, 280 g ai/ha): 0%; pest or weed control at 280 g/ha ([6]; Table 3, 280 g ai/ha): 0%; pest or weed control at 280 g/ha ([7]; Table 3, 280 g ai/ha): 70% |
| COC(=O)c1nc(-c2ccc(Cl)cc2)cc(N)c1OC [Compound 7, methyl 4-amino-6-(4-chlorophenyl)-3-methoxypicolinate] | 0 | 0 | 95 | 0 | 90 | 0 | 100 |  |
| COc1c(C(=O)O)nc(-c2ccc(Cl)c(Cl)c2)c(F)c1N [Compound 79] |  |  |  |  |  |  |  | pest or weed control at 70 g/ha [1]: 90%; pest or weed control at 70 g/ha [2]: 70%; pest or weed control at 70 g/ha [3]: 95%; pest or weed control at 70 g/ha [4]: 80%; pest or weed control at 70 g/ha [5]: 80%; pest or weed control at 70 g/ha [6]: 15%; pest or weed control at 70 g/ha [7]: 100% |
| COc1c(N)cc(C(C)F)nc1C(=O)O (stereo not drawn) [Compound 84, 4-amino-6-(1-fluoroethyl)-3-methoxypicolinic acid] | 0 | 0 | 0 | 0 | 10 | 0 | 30 |  |
| COC(=O)c1nc(-c2ccc(Cl)c(OC)c2F)cc(NC(C)=O)c1OC [Compound 3, methyl 4-acetamido-6-(4-chloro-2-fluoro-3-methoxyphenyl)-3-methoxypicolinate] | 0 | 0 | 100 | 10 | 100 | 0 | 100 |  |
| COc1ccc(-c2nc(C(=O)O)c(OC)c(N)c2F)cn1 [Compound 78, 4-amino-3-fluoro-5,6′-dimethoxy-[2,3′-bipyridine]-6-carboxylic acid] |  |  |  |  |  |  |  | pest or weed control at 70 g/ha [1]: 80%; pest or weed control at 70 g/ha [2]: 85%; pest or weed control at 70 g/ha [3]: 80%; pest or weed control at 70 g/ha [4]: 80%; pest or weed control at 70 g/ha [5]: 80%; pest or weed control at 70 g/ha [6]: 50%; pest or weed control at 70 g/ha [7]: 97% |
| COC(=O)c1nc(-c2ccc(C#N)cc2)c(F)c(N)c1OC [Compound 41] | 100 | 0 | 100 | 70 | 80 | 0 | 100 |  |
